Data as given in patent publication US20080312209A1, “Piperazine Heteroaryl Derivatives as Gpr38 Agonists” (Glaxo Group Limited, priority 2005, published 2008).
Where a name gives a salt, the structure may show the parent alone.

Assays:
hGPR38R [1] = biological target: T1, hGPR38R (Homo sapiens, UniProt O43193); assay: GPR38 FLIPR functional agonist assay; type: cell-based; parameters: expressed in transfected cells; settings: HEK-293 cells stably expressing the GPR38 receptor, agonist response, Fluo-4 fluorescence
Experimental: The potencies and efficacies of the compounds of this invention for GPR^38 can be determined by FLIPR assay performed on the human cloned receptor as described herein. It has been found, using the FLIPR functional assay, that compounds of formula (I) appear to be partial or full agonists of the GPR38 receptor.
GPR38FLIPR Functional Agonist Assay Protocol
HEK-293 cells stably expressing the GPR38 receptor were seeded (10,000 cells/well) into poly-D-lysine coated 384-well black-wall, clear-bottom microtitre plates (Becton Dickinson) 24 h prior to assay. On day of assay, cells were washed (×2) with 80 ul of assay buffer (Hanks Balanced Salts Solution (HBSS), 10 mM HEPES, 200 μM Ca^2+, 2.5 mM probenecid) using the EMBLA cell washer. After the final wash, buffer was aspirated to leave a residual volume of 30 ul on the cells. Cells were loaded with 1 μM (final) Fluo-4-AM fluorescent indicator dye (TefLabs) in assay buffer, (20 ul loading solution added to each well using the Multidrop). Plates were incubated for 1 h at 37° C., before being washed (×3) with 80 ul assay buffer using the EMBLA cell washer; 30 ul residual being left after the final wash. Plates were then assayed on a Fluorometric Imaging Plate Reader (FLIPR, Molecular Devices). Test compounds were prepared in assay buffer without probenecid, but containing 0.03% CHAPS. In the FLIPR, 10 ul of test compound was added to the cells and changes in fluorescence measured over a 2 min timeframe. Maximum change in fluorescence over baseline was used to determine agonist response and concentration response curves were constructed, using a 4-parameter logistic equation.
(§1) The following alternative procedure may also be used:
HEK-293 cells stably expressing the GPR38 receptor were seeded (30,000 cells/100 ul growth media/well) into poly-D-lysine coated 96-well black-wall, clear-bottom microtitre plates (Corning) 24 hours prior to assay. On the day of assay the cells were loaded with 2 μM (final) Fluo-4-AM fluorescent indicator dye (Molecular Probes) and 1 mM (final) probenicid in assay buffer (145 mM sodium chloride, 2.5 mM potassium chloride, 10 mM Hepes, 10 mM glucose, 1.2 mM magnesium chloride, 1.5 mM calcium chloride and 0.1% BSA) (50 ul loading solution added to each well). Plates were incubated for 1 hour at 25° C., before being washed 4 times with 100 ul assay buffer using the EMBLA cell washer; 150 ul residual being left after the final wash. The cells were then incubated at 25° C. for 20 minutes and the plates were then assayed on a Fluorometric Imaging Plate Reader (FLIPR, Molecular Devices). Test compounds were prepared in assay buffer without probenecid. In the FLIPR, 50 ul of test compound was added to the cells and changes in fluorescence measured over a 2 minute timeframe. Maximum change in fluorescence over baseline was used to determine agonist response and concentration response curves were constructed, using a 4-parameter logistic equation.
Target sequence in this assay (O43193 whole entry): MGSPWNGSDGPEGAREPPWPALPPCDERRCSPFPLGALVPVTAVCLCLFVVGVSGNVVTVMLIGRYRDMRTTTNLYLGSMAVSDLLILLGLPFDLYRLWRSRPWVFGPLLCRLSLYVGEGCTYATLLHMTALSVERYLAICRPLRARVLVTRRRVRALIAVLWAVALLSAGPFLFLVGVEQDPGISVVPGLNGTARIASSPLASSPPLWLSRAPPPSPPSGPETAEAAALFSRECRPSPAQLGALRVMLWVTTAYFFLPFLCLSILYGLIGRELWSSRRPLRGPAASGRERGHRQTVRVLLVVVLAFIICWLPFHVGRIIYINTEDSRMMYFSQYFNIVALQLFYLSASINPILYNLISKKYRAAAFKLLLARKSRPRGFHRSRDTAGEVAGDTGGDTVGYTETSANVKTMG

hGPR38R [2] = biological target: T1, hGPR38R; assay: GPR38 GTPγS functional agonist assay; type: biochemical; parameters: expressed in transfected cells; host or cells: HEK293 (transient transfection; P2 membrane fractions)
Experimental: The potencies and intrinsic activities of the compounds of this invention can also be determined according to the [35S]GTPγS functional assay which is described herein. It has been found, using the [35S]GTPγS functional assay, that compounds of formula (I) appear to be partial or full agonists of the GPR38 receptor.
GPR38GTPγS Functional Agonist Assay Protocol
For each compound being assayed, in an Opti clear bottom 96 well plate, is added:—
(a) 20 μl of test compound (or 10 μl of guanosine 5′-triphosphate (GTP) as non-specific binding control) diluted to required concentration in assay buffer (20 mM N-2-Hydroxyethylpiperazine-N′-2-ethanesulfonic acid (HEPES)+100 mM NaCl+10 mM MgCl2, pH adjusted to 7.4 with NaOH); (b) 60 μl bead/membrane/GDP mix prepared by suspending wheat germ agglutinin-polyvinyltoluene (WGA-PVT) scintillation proximity assay (SPA) beads at 100 mg/ml in assay buffer followed by mixing with membrane (prepared in accordance with the methodology described above) and diluting in assay buffer to give a final volume of 60 μl which contains 10 μg protein and 0.5 mg bead per well—mixture is pre-mixed at 4° C. for 30 min on a roller and just prior to addition to the plate, 10 μM final concentration of guanosine 5′ diphosphate (GDP—diluted in assay buffer) is added; (c) 20 μl guanosine 5′ [γ35-S]thiotriphosphate, triethylamine salt (Amersham; radioactivity concentration=37 kBq/μl or 1 mCi/ml; Specific Activity 1160 Ci/mmol) diluted to 1.9 nM in assay buffer to give 0.38 nM final.
The plate is incubated on a shaker at 25° C. for 30 min followed by centrifugation for 5 min at 1500 rpm. The plate is read between 3 and 6 h after completion of centrifuge run in a Wallac Microbeta counter on a 1 min normalised tritium count protocol. Data is analysed using a 4-parameter logistic equation. Basal activity used as minimum.
as §1
Target sequence in this assay (O43193 whole entry): as above
Target sequence in this assay (P09471 2-354 partner limits assumed): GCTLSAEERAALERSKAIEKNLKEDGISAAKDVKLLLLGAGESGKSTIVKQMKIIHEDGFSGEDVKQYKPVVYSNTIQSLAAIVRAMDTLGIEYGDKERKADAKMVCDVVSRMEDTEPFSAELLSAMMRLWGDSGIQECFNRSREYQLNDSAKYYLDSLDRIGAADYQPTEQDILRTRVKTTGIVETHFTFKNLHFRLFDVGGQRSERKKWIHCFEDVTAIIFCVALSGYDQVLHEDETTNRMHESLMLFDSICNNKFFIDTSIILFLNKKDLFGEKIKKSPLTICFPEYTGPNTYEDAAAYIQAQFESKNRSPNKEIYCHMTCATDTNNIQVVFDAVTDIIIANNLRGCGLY
Target sequence in this assay (P62873 2-340 partner limits assumed): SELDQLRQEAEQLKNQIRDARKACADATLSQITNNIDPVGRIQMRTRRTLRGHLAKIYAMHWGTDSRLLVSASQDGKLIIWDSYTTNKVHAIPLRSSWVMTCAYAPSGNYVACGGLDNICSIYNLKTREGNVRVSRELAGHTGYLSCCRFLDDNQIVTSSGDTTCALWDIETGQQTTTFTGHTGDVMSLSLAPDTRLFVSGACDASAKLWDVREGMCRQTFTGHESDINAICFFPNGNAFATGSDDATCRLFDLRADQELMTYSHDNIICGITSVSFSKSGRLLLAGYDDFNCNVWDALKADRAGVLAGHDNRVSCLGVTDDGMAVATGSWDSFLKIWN
Target sequence in this assay (P59768 2-68 partner limits assumed): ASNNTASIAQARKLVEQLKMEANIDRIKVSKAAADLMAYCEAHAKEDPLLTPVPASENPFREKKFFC
Membranes are derived from bulk cell cultures of HEK293 cell lines transiently transfected with hGPR38R and Go G-protein. P2 membranes fractions are prepared, aliquoted and stored at −80° C.
For each compound being assayed, the following is added into a white Greiner 384 well plate:—
(a) 1 μl of test compound diluted to required concentration in DMSO. (b) 20 μl bead/membrane/Saponin/GDP mix prepared as follows;—suspension of LEADseeker wheat germ agglutinin (WGA) scintillation proximity assay (SPA) beads at 25 mg/ml in assay buffer (20 mM N-2-Hydroxyethylpiperazine-N′-2-ethanesulfonic acid (HEPES)+100 mM NaCl+10 mM MgCl2, pH adjusted to 7.4 with KOH) containing saponin at 150 ug/ml. Mixing of bead suspension with membranes at 500 ug/ml (prepared in accordance with the methodology described above) and diluting in assay buffer to give a final volume of 20 μl which contains 5 μg protein and 0.25 mg bead per well.
Mixture is pre-mixed for 30 minutes on a roller and just prior to addition to the plate, 3 μM final assay concentration of guanosine 5′ diphosphate (GDP) (diluted in assay buffer) is added.
(c) 25 μl guanosine 5′ [γ35-S]thiotriphosphate, triethylamine salt (Amersham; radioactivity concentration=37 kBq/μl or 1 mCi/ml; Specific Activity 1160 Ci/mmol) diluted to 0.6 nM in assay buffer to give 0.33 nM final assay concentration.
The plate is then spun for 2 minutes at 1500 rpm and then incubated at room temperature for 4 hours. The plate is then read on a Viewlux Plux (Perkin Elmer). Data is analysed using a 4-parameter logistic equation.

[3] = read-out: pEC50 in the FLIPR assay (converted)
[4] = [35S]GTPγS SPA, HEK293 membranes with hGPR38R and Go G-protein, read-out: pEC50 in the GTPγS assay (converted)

| Structure (SMILES) | EC50 (hGPR38R [1]; [3]) | EC50 (hGPR38R [2]; [4]) | EC50 (hGPR38R [1]; pEC50 in the FLIPR assay) | EC50 (hGPR38R [2]) |
| --- | --- | --- | --- | --- |
| C[C@@H]1CN(Cc2ccc(-c3cccnc3C(=O)N3CC[C@H](Oc4ccc(F)cc4)C3)cc2)C[C@H](C)N1 [Example 18, (3R,5S)-1-({4[2-({(3S)-3-[(4-fluorophenyl)oxy]-1-pyrrolidinyl}carbonyl)-3-pyridinyl]phenyl}methyl)-3,5-dimethylpiperazine] | < 0.316 µM | < 3.16 µM |  |  |
| C[C@@H]1CN(Cc2ccc(-c3cccnc3C(=O)N3CCC(Nc4ccc(F)c(F)c4)CC3)cc2F)C[C@H](C)N1 [Example 12, N-(3,4-difluorophenyl)-1-{[3-(4-{[(3R,5S)-3,5-dimethyl-1-piperazinyl]methyl}-3-fluorophenyl)-2-pyridinyl]carbonyl}-4-piperidinamine] |  |  | < 0.316 µM | < 3.16 µM |
| C[C@@H]1CN(Cc2ccc(-c3cccnc3CN(C)C(=O)CCc3ccc(F)cc3)cc2)C[C@H](C)N1 [Example 3, N-{[3-(4{[(3R,5S)-3,5-Dimethyl-1-piperazinyl]methyl}phenyl)-2-pyridinyl]methyl}-3-(4-fluorophenyl)-N-methylpropanamide] | < 0.316 µM | < 3.16 µM |  |  |
| C[C@@H]1CN(Cc2ccc(-c3cccnc3C(=O)N3CCC(Nc4cccc(F)c4)CC3)cc2F)C[C@H](C)N1 [Example 11, 1-{[3-(4-{[(3R,5S)-3,5-dimethyl-1-piperazinyl]methyl}-3-fluorophenyl)-2-pyridinyl]carbonyl}-N-(3-fluorophenyl)-4-piperidinamine] |  |  | < 0.316 µM | < 3.16 µM |
| C[C@@H]1CN(Cc2ccc(-c3cccnc3C(=O)N3CCC(Nc4ccc(F)cc4)CC3)cc2)C[C@H](C)N1 [Example 2, (3R,5S)-3,5-Dimethyl-1-({4-[2-({4-[(4-fluorophenyl)amino]piperidin-1-yl}carbonyl)pyridin-3-yl]phenyl}methyl)piperazine] |  |  | < 0.316 µM | < 3.16 µM |
| C[C@@H]1CN(Cc2ccc(-c3cccnc3C(=O)N3CCC(Nc4cccc(F)c4)CC3)cc2)C[C@H](C)N1 [Example 10, 1-{[3-(4-{[(3R,5S)-3,5-dimethyl-1-piperazinyl]methyl}phenyl)-2-pyridinyl]carbonyl}-N-(3-fluorophenyl)-4-piperidinamine] |  |  | < 0.316 µM | < 3.16 µM |
| C[C@@H]1CN(Cc2ccc(-c3cccnc3C(=O)N3CCC(Nc4ccccc4F)CC3)cc2)C[C@H](C)N1 [Example 31, 1-{[3-(4-{[(3R,5S)-3,5-dimethyl-1-piperazinyl]methyl}phenyl)-2-pyridinyl]carbonyl}-N-(2-fluorophenyl)-4-piperidinamine] |  |  | < 1 µM | < 3.16 µM |
| C[C@@H]1CN(Cc2ccc(-c3cccnc3S(=O)(=O)N3CCC(Nc4ccccc4F)CC3)cc2F)C[C@H](C)N1 [Example 20, 1-{[3-(4-{[(3R,5S)-3,5-Dimethyl-1-piperazinyl]methyl}-3-fluorophenyl)-2-pyridinyl]sulfonyl}-N-(2-fluorophenyl)-4-piperidinamine] | < 1 µM | < 3.16 µM |  |  |
| Cc1nc(CN(C)C(=O)CCc2ccc(F)cc2)c(-c2ccc(CN3C[C@@H](C)N[C@@H](C)C3)cc2)s1 [Example 6, N-{[5-(4-{[(3R,5S)-3,5-Dimethyl-1-piperazinyl]methyl}phenyl)-2-methyl-1,3-thiazol-4-yl]methyl}-3-(4-fluorophenyl)-N-methylpropanamide dihydrochloride] | < 0.316 µM | < 3.16 µM |  |  |
| C[C@@H]1CN(Cc2ccc(-n3ccnc3C(=O)N3CCC(Nc4ccc(F)cc4)CC3)cc2)C[C@H](C)N1 [Example 22, 1 {[1-(4-{[(3R,5S)-3,5-Dimethyl-1-piperazinyl]methyl}phenyl)-1H-imidazol-2-yl]carbonyl}-N-(4-fluorophenyl)-4-piperidinamine] |  |  | < 0.316 µM | < 3.16 µM |
| C[C@@H]1CN(Cc2ccc(-c3cccnc3C(=O)N3CCC(Nc4ccc(F)cc4)CC3)cc2F)C[C@H](C)N1 [Example 9, 1-{[3-(4-{[(3R,5S)-3,5-dimethyl-1-piperazinyl]methyl}-3-fluorophenyl)-2-pyridinyl]carbonyl}-N-(4-fluorophenyl)-4-piperidinamine] |  |  | < 0.316 µM | < 3.16 µM |
